The source of these data is publication PMC10663516 (Scientific Reports, 2023).

Where only a bound is given, the exact number is not on record here.

On the set-up of data set [1]: method as in PMID 20615965. The settings on record: mice, oral, 14.2 mg/kg; cited from earlier work.
For data set [2], the system named is TMD8. Briefly: Cell viability, ATPlite. It is filed as cell-based, human. The method, then: (§1) The potency of TL-895 effects on cell viability was further examined in vitro in a panel of diffuse large B-cell lymphoma (DLBCL) and MCL cell lines, comprising ten germinal B-cell like subtype (GCB)-DLBCL cell lines, six activated B-cell like (ABC)-DLBCL cell lines, and six MCL cell lines (Horizon Discovery Inc, Cambridge MA, USA). Cells were seeded into 384-well plates (500 cells/well) and incubated (37 °C for 24 h) before treatment with varying concentrations of TL-895 for 72 h. ATP levels were analyzed using the ATPlite Luminescence Assay System (Perkin Elmer, UK). Growth inhibition and maximum response were calculated using the Chalice Analyzer (Horizon Discovery Inc).

Data set [3] concerns OCI-Ly3. Briefly: Cell viability, ATPlite. The format is cell-based, human. On the procedure:
as §1
Background: Cellular ATP, detected with luciferase, serves as a proxy for viable cell number.

For data set [4], the system named is HBL-1. The experiment in a line: Cell viability, ATPlite. The format is cell-based, human. On the procedure:
as §1

The test system of data set [5] is SU-DHL-2-epst. The experiment in a line: Cell viability, ATPlite. It is filed as cell-based, human. On the procedure: as §1
Data set [6] addresses T1, Txk (Homo sapiens, UniProt P42681).
T1 construct: purchased EMD Millipore
Briefly: Millipore Kinase Profiler screening panel, Txk. The format is biochemical. The method, then: (§2) The Kinase Profiler™ screening panel (EMD Millipore, Burlington, MA, USA) was used to test the inhibitory activity of TL-895 against 270 protein kinases. Kinases were incubated with TL-895 (1 µM) for 20 min to 4 h at room temperature, according to standard kinome screen procedures. […]

Data set [7] addresses T2, BMX (Homo sapiens, UniProt P51813).
T2 construct: purchased EMD Millipore
The experiment in a line: Millipore Kinase Profiler screening panel, BMX. It is filed as biochemical. The method, then: as §2

For data set [8] the following is noted: mouse, in vivo, po, 25 mg/kg.
The test system of data set [9] is HepG2 cells. The experiment in a line: Cytotoxicity by ATP content (CellTiter-Glo). It is filed as cell-based, human. To be noted: HepG2 EC50 at 24 and 72 h.
Procedure: (§3) HepG2 cells (human hepatocellular carcinoma [epithelial]) and primary human hepatocytes were cultured in DMEM/F-12 medium supplemented with antibiotics, sodium pyruvate, insulin and 10% fetal calf serum. During the testing steps, the medium was replaced by serum-free media containing bovine serum albumin (BSA) and dexamethasone. All the cultures are incubated at 37 °C in a humidified chamber containing 5% CO2. […] HepG2 and primary hepatocytes were cultured in 96-well tissue culture plates either for luminescence (2E4/well in 100 µL) or pre-coated with collagen I (3.5E4/well in 100 µL, respectively).
(§4) For the cytotoxicity data, the % values relative (%RV) to the vehicle controls were calculated for each dose level. […] The overall EC50s were the averages of the values obtained from each experiment (PRISM® GraphPad™ Software, Boston, MA).
A short description of data set [10]: Cytotoxicity by ATP content (CellTiter-Glo). To be noted: human, HepG2 cells. It is filed as cell-based, human.
Procedure: as §3, §4
For data set [11], the system named is A431 and A549. The experiment in a line: ADCC induced by anti-PD-L1 or anti-EGFR antibody (51Cr release). The format is cell-based, human. The settings on record: A431 and A549 target cells, PBMC effector cells, 4 h; TL-895 0.05 and 3 µM or 8 nM–25 µM. The method, then:
In a second study, ADCC induced by anti-programmed death-ligand 1 (anti-PD-L1) or anti-EGFR antibody was measured using two cultured human tumor cell lines (A431 and A549, target cells; obtained from ATCC). Target cells were stimulated with human interferon-gamma (200 ng/mL) for 48 h to increase surface expression of PD-L1 target protein. Target cell and effector cells (peripheral blood mononuclear cells) were incubated for 4 h with (a) increasing concentrations of antibody (0.2–1000 ng/mL) and TL-895 (0, 0.05 and 3 µM), or (b) a fixed concentration of antibody (20 ng/mL) and increasing concentrations of TL-895 (8 nM–25 µM). ADCC analysis was based on the quantitation of chromium-51 (^51Cr) release during lysis of target cells using […] detection on a MicroBeta2 2450-0060 liquid scintillation and luminescence counter (PerkinElmer, Waltham, MA, USA).

For data set [12], the system named is B-cell malignancies. To be noted: cited from earlier work.
In data set [13] the target is T3, BTK (Homo sapiens, UniProt Q06187). The experiment in a line: Off-Chip mobility shift kinase assay (potency). It is filed as biochemical. Also noted: Purified full-length recombinant BTK (Carna Biosciences #08–080); purchased Carna Biosciences 08–080. The settings on record: 75 µM ATP, 90 min, n = 9. The method, then: Purified full-length recombinant BTK (Carna Biosciences #08–080) was diluted in buffer (see Supplementary Material) to a final concentration of 0.05 ng/µL with 75 µM ATP and 1 µM of the peptide FITC-AHA-[…]-NH2 (Tufts Core Facility, Boston, MA, USA) into microtiter plates. TL-895 (0.038–10,000 nM) was added and the samples were incubated at room temperature for 90 min (min) before the addition of stop buffer containing 10 mM ethylenediamine tetra-acetic acid (EDTA; see Supplementary Material). Samples were read on a Caliper LC3000 (Caliper Life Sciences, Waltham, MA, USA) using an Off-Chip mobility shift assay format to measure percentage conversion of substrate to product, from which half maximal inhibitory concentration (IC50)–response curves were generated.
T3 sequence (Q06187 whole entry): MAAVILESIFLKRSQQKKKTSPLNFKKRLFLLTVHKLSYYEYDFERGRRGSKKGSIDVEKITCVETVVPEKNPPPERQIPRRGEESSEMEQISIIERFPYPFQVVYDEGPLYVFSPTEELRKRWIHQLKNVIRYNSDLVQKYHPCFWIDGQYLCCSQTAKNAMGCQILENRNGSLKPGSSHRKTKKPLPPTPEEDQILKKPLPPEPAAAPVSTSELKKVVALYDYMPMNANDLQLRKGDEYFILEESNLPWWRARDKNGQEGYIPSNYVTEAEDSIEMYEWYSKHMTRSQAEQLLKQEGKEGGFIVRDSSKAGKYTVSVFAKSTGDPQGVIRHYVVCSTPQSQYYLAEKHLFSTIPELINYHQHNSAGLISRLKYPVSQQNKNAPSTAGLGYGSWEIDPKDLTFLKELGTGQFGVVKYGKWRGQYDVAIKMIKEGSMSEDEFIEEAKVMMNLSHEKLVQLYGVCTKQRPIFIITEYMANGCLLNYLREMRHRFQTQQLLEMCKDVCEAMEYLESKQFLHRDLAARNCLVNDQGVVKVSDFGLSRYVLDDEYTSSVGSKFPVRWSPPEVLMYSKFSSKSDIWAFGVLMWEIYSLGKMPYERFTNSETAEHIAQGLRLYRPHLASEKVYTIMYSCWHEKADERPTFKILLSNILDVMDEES
potent second-generation BTK inhibitor, for the treatment of B-cell
Samantha M. Goodstal, Jing Lin, Timothy Crandall, Lindsey Crowley, Andrew T. Bender,
Albertina Pereira, Maria Soloviev, John S. Wesolowski, Riham Iadevaia,
Sven-Eric Schelhorn, Edith Ross, Federica Morandi, Jianguo Ma, Anderson Clark
Kinase assay buffer components
4 mM dithiothreitol (Sigma, D0632)
100 mM 4-(2-hydroxyethyl)-1-piperazineethanesulfonic acid (HEPES) pH 7.5
0.227% Coating Reagent #3 (Caliper Life Sciences)
TL-89 5 lo g c onc ent rati on (M )
Supplementary Figure S1. Inhibition of recombinant human full-length BTK activity by TL-
895 and resulting IC50. […]

The target in data set [14] is T3, BTK. Briefly: BTK phosphorylation in Ramos cells after anti-IgM stimulation (ProteinSimple Wes). The format is cell-based. On the set-up: endogenous in cells; host or cells: Ramos Burkitt's lymphoma cells (ATCC CRL-1596).
The mark [15] stands for this setting: Homo sapiens, TMD8 (ABC-DLBCL), 72 h.
[16] abbreviates: Homo sapiens, HBL1, HBL-1 (ABC-DLBCL), 72 h.

T2 sequence (P51813 whole entry): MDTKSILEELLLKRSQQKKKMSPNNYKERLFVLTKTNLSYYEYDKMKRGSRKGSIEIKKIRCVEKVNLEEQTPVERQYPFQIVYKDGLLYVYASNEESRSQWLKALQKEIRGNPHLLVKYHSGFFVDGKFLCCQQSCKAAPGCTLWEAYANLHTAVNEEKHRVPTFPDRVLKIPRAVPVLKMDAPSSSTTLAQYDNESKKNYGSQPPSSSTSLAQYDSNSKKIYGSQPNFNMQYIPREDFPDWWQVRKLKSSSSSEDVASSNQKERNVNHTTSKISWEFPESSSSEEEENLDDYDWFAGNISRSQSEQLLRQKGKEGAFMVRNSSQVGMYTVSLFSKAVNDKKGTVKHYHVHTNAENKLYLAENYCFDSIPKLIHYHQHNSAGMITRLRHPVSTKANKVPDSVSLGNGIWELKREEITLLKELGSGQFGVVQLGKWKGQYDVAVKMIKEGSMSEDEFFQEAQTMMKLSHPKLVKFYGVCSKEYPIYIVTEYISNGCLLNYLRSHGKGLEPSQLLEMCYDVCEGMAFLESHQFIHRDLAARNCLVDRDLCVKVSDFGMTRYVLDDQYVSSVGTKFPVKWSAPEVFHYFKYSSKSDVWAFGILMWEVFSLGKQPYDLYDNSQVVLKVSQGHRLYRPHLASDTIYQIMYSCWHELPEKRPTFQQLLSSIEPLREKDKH
T1 sequence (P42681 whole entry): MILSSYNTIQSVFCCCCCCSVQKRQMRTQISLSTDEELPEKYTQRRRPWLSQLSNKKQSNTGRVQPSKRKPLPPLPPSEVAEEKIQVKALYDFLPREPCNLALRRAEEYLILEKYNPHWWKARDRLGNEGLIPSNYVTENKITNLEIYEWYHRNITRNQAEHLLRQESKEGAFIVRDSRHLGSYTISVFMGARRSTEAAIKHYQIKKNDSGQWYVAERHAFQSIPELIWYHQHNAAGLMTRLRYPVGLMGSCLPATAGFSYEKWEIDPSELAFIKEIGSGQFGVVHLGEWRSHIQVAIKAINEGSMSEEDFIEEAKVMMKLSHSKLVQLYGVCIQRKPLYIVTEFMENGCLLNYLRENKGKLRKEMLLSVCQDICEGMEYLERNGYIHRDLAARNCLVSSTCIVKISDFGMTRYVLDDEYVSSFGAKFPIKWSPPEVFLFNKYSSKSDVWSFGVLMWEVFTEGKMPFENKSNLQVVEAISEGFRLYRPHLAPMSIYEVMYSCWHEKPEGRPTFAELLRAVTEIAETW

As to `C=CC(=O)N1CCC[C@@H](n2nc(-c3ccc(Oc4ccccc4)cc3)c3c(N)ncnc32)C1` [Ibrutinib], the Exposure in [1] was 569 ng·h/mL.

Take `C=CC(=O)N1CCC(F)(CNc2ncnc(N)c2-c2ccc(Oc3ccccc3)cc2)CC1` [TL-895]: the GI50 in data set [2] (setting [15]) came to 0.01 µM; in data set [4] (setting [16]), 0.56 µM. Further, the IC50 in [2] (setting [15]) was 0.01 µM; in data set [4] (setting [16]), 10.3 µM; in [6], 0.062 µM; in data set [7], 0.005 µM; in [13], 0.0015 µM; in data set [14] (30 min pre-treatment, anti-IgM stimulation, read-out: IC50, BTK auto-phosphorylation at Y223), 0.001 to 0.01 µM. Further, the Emax amounted to 181% in data set [2] (Homo sapiens, TMD8 (ABC-DLBCL), 72 h, read-out: Max response (GI %)); 39% in data set [3] (Homo sapiens, OCI-Ly3 (ABC-DLBCL), 72 h, read-out: Max response (GI %)); 89% in data set [4] (Homo sapiens, HBL1, HBL-1 (ABC-DLBCL), 72 h, read-out: Max response (GI %)); 2% in data set [5] (Homo sapiens, SU-DHL-2-epst (ABC-DLBCL), 72 h, read-out: Max response (GI %)). Further, the “Sensitivity to TL-895” value in data set [2] (TMD8, mutations in both CD79b and MyD88) is given as “sensitive”; in data set [3] (OCI-Ly3, MyD88 mutation, CD79 wild-type), “unresponsive”; in data set [4] (HBL-1, mutations in both CD79b and MyD88), “sensitive”; in [5] (SU-DHL-2-epst, MyD88 mutation, CD79 wild-type), “unresponsive”. The “Exposure relative to that needed for 90–95% target occupancy” value in data set [8] is 8.5 fold. In [9], the “Cytotoxicity EC50 in HepG2 cells relative to IC50s in sensitive MCL and DLBCL cell lines” value is recorded as 5–5000 fold. In addition, the EC50 at 24 h in data set [10] (HepG2, 24 h) is over 50 µM. Further, the EC50 at 72 h in data set [10] (HepG2, 72 h) was over 50 µM. Moreover, the “Effect on ADCC of anti-PD-L1 or anti-EGFR antibodies (concentration–response, maximum cell lysis)” value in data set [11] is recorded as “did not affect the concentration–response or maximum cell lysis when combined with anti-PD-L1 or anti-EGFR antibodies, except at the highest concentrations tested”. In data set [12] (doses up to 900 mg/day), the Dose-limiting toxicities result is “no dose-limiting toxicities were reported”. Besides, the Maximum tolerated dose result in [12] (doses up to 900 mg/day) was “not reached”. Further, the “Patients with best response of PR or higher” value in data set [12] (monotherapy) was “Half of patients”. Moreover, in data set [12] (three patients), the “Patients with treatment-related grade 3–4 adverse events” value is recorded as 17%. In [14] (up to highest tested concentration 1 µM), the “Phosphorylation of Y551 on the activation loop” value is given as “not inhibited”.

The term GI50 denotes the concentration that inhibits growth by half. The low end stands for greater sensitivity of the cells, the high end for lower sensitivity of the cells. For orientation: IC50 means the midpoint of a concentration-inhibition curve. As a reminder, the EC50 is the concentration at which the effect is half-maximal. High values mean weaker potency, low ones greater potency.
